This note sets out measurements from PubChem BioAssay (NCI).

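Following 48 hours of exposure in 96-well plates, responses at five concentrations were used to interpolate endpoints linearly. The concentration for 50% growth inhibition is given as GI50. TGI: concentration producing complete growth inhibition.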 Where only a bound is given, the exact number is not on record here.

For one assay, the system named is T-47D breast. Briefly: NCI tumour cell line growth inhibition, 48 h.
Consider `COc1ccc(N2C(=O)C3c4[nH]c5ccccc5c4C4CCCCCCCCCC4C3C2=O)cc1` (stereo unspecified), for which the TGI was greater than 10 µM.

Molecule `O=C(CC(C(=O)c1ccco1)c1ccco1)c1ccco1` (stereo unspecified) gave a TGI greater than 100 µM.

As for `CC(C)C(N)C(=O)NC(CCC(=O)NCCCCC(N)C(=O)NCCCNc1ccc([N+](=O)[O-])c2[nH]c3ccccc3c(=O)c12)C(N)=O` (stereo unspecified), the TGI was greater than 100 µM.

For `CC1(C)OC2COC3([C@@H]4OC(C)(C)O[C@@H]4CO)OC(C)(C)OC3C2O1` (stereo partly specified), the TGI is greater than 100 µM.

`COP(=O)(OC)C(Nc1ccc(Cc2ccc(NC(c3ccco3)P(=O)(OC)OC)cc2)cc1)c1ccco1` (stereo unspecified) displayed a TGI greater than 100 µM.

In turn, `O=C1C(C(O)(C(F)(F)F)C(F)(F)F)CCC1C(O)(C(F)(F)F)C(F)(F)F` (stereo unspecified) came in with a TGI of 2.13 µM.

The molecule `COc1cc(/C=C2\CCC(C)/C(=C\c3cc(OC)c(OC)c(OC)c3)C2=O)cc(OC)c1OC` (stereo unspecified) displayed a TGI greater than 100 µM.

Molecule `Nc1nc(Nc2ccccc2)sc1C(=O)c1ccco1` registered a TGI of 41.4 µM.

As to `C[C@H]1OC(=O)[C@@H]2N=NN(Cc3ccccc3)[C@H]12`, the TGI was greater than 100 µM.

In turn, `C/C(=N\Nc1nc2ccccc2s1)c1ccc2ccccc2n1` registered a TGI of 53.5 µM.

Molecule `CN1N=C(c2ccncc2)OC1c1ccccc1F` (stereo unspecified) had a TGI greater than 100 µM.

In turn, `Cc1c(-c2ccccc2)[nH]n(C2=NCCN2)c1=O` registered a TGI greater than 100 µM.

`O=[N+]([O-])/C(Cl)=C(\NCCN/C(C(Cl)=C(Cl)Cl)=C(/Cl)[N+](=O)[O-])C(Cl)=C(Cl)Cl` yielded a TGI greater than 100 µM.

Consider `C[n+]1c(/C=C/c2ccc(O)c3ncccc23)[se]c2ccccc21`, for which the TGI was greater than 41.8 µM.

For `COc1ccc(NC(C)c2ccncc2)cc1` (stereo unspecified), the TGI was greater than 100 µM.

The molecule `CC1=NNC(=O)C1C1CC(c2c[nH]c3ccccc23)=NN=C1Cl` (stereo unspecified) registered a TGI greater than 100 µM.

With `C/C(=C\CO)CC/C=C(\C)CNc1ccc([N+](=O)[O-])cc1`, the TGI is 80 µM.

For `CC(=O)Oc1c(C)c(C)c2c(c1C)CCC(C)(CC(=O)OCCCCCCCCCCC[P+](c1ccccc1)(c1ccccc1)c1ccccc1)O2` (stereo unspecified), the GI50 was 0.0727 µM and the TGI came to 0.736 µM.

Turning to `CCN(CCCl)c1cc(CN(C)C)cc(NC(=O)c2ccc(C(=O)Nc3cccc(CN(C)C)c3)cc2)c1`, the TGI amounted to 10.1 µM.

A further assay deals with TK-10 renal. Briefly: NCI tumour cell line growth inhibition, 48 h.
`COc1ccc(N2C(=O)C3c4[nH]c5ccccc5c4C4CCCCCCCCCC4C3C2=O)cc1` (stereo unspecified): the TGI is greater than 10 µM.

Molecule `O=C(CC(C(=O)c1ccco1)c1ccco1)c1ccco1` (stereo unspecified) returned a TGI greater than 100 µM.

In the case of `CC(C)C(N)C(=O)NC(CCC(=O)NCCCCC(N)C(=O)NCCCNc1ccc([N+](=O)[O-])c2[nH]c3ccccc3c(=O)c12)C(N)=O` (stereo unspecified), the TGI was greater than 100 µM.

`Cc1cccc(/C(Br)=C2/OC(=O)c3ccccc32)c1` displayed a TGI greater than 100 µM.

With `COP(=O)(OC)C(Nc1ccc(Cc2ccc(NC(c3ccco3)P(=O)(OC)OC)cc2)cc1)c1ccco1` (stereo unspecified), the TGI was determined as 29.3 µM.

Take `O=C1C(C(O)(C(F)(F)F)C(F)(F)F)CCC1C(O)(C(F)(F)F)C(F)(F)F` (stereo unspecified): the TGI was greater than 100 µM.

In the case of `COc1cc(/C=C2\CCC(C)/C(=C\c3cc(OC)c(OC)c(OC)c3)C2=O)cc(OC)c1OC` (stereo unspecified), the TGI turned out to be 14 µM.

`Nc1nc(Nc2ccccc2)sc1C(=O)c1ccco1`: the TGI came to 35.9 µM.

The molecule `C[C@H]1OC(=O)[C@@H]2N=NN(Cc3ccccc3)[C@H]12` registered a TGI greater than 100 µM.

`C/C(=N\Nc1nc2ccccc2s1)c1ccc2ccccc2n1` showed a TGI greater than 100 µM.

In the case of `CN1N=C(c2ccncc2)OC1c1ccccc1F` (stereo unspecified), the TGI was greater than 100 µM.

As for `Cc1c(-c2ccccc2)[nH]n(C2=NCCN2)c1=O`, the TGI was greater than 100 µM.

The molecule `O=[N+]([O-])/C(Cl)=C(\NCCN/C(C(Cl)=C(Cl)Cl)=C(/Cl)[N+](=O)[O-])C(Cl)=C(Cl)Cl` displayed a TGI greater than 100 µM.

`Cc1ccc(NC(=O)/C(Cc2nc3ccc([N+](=O)[O-])cc3[nH]c2=O)=N\NC(=O)C[n+]2ccccc2)c(C)c1` returned a TGI of 64.4 µM.

In turn, `CC1(C)N=C2C(=O)c3c([nH]c4ccccc34)[C@]3(C)CCC1CC23` (stereo partly specified) came in with a TGI greater than 6.25 µM.

Consider `C[n+]1c(/C=C/c2ccc(O)c3ncccc23)[se]c2ccccc21`, for which the TGI came out at 10.9 µM.

The molecule `COc1ccc(NC(C)c2ccncc2)cc1` (stereo unspecified) displayed a TGI greater than 100 µM.

Molecule `O=C1C=CC(=O)C(CNc2ccc(C(=O)OCc3ccccc3)cc2)=C1` came in with a TGI of 14.9 µM.

Consider `CC1=NNC(=O)C1C1CC(c2c[nH]c3ccccc23)=NN=C1Cl` (stereo unspecified), for which the TGI is greater than 100 µM.

Turning to `C/C(=C\CO)CC/C=C(\C)CNc1ccc([N+](=O)[O-])cc1`, the TGI came out at 46.7 µM.

In turn, `CCN(CCCl)c1cc(CN(C)C)cc(NC(=O)c2ccc(C(=O)Nc3cccc(CN(C)C)c3)cc2)c1` gave a TGI of 9.94 µM.

`c1ccc(C2CC(=NC3CCCCC3)Nc3ccccc3N2)cc1` (stereo unspecified) gave a TGI greater than 100 µM.

For another assay, the system named is HCT-15 colon. Briefly: NCI tumour cell line growth inhibition, 48 h.
For `COc1ccc(N2C(=O)C3c4[nH]c5ccccc5c4C4CCCCCCCCCC4C3C2=O)cc1` (stereo unspecified), the TGI was greater than 10 µM.

The molecule `CC(C)C(N)C(=O)NC(CCC(=O)NCCCCC(N)C(=O)NCCCNc1ccc([N+](=O)[O-])c2[nH]c3ccccc3c(=O)c12)C(N)=O` (stereo unspecified) showed a TGI greater than 100 µM.

In turn, `Cc1cccc(/C(Br)=C2/OC(=O)c3ccccc32)c1` registered a TGI greater than 100 µM.

Take `CC1(C)OC2COC3([C@@H]4OC(C)(C)O[C@@H]4CO)OC(C)(C)OC3C2O1` (stereo partly specified): the TGI was greater than 100 µM.

Regarding `COP(=O)(OC)C(Nc1ccc(Cc2ccc(NC(c3ccco3)P(=O)(OC)OC)cc2)cc1)c1ccco1` (stereo unspecified), the TGI was greater than 100 µM.

In turn, `O=C1C(C(O)(C(F)(F)F)C(F)(F)F)CCC1C(O)(C(F)(F)F)C(F)(F)F` (stereo unspecified) gave a TGI greater than 100 µM.

Regarding `COc1cc(/C=C2\CCC(C)/C(=C\c3cc(OC)c(OC)c(OC)c3)C2=O)cc(OC)c1OC` (stereo unspecified), the TGI was 6.57 µM.

As for `Nc1nc(Nc2ccccc2)sc1C(=O)c1ccco1`, the TGI was found to be 50.9 µM.

On to `C[C@H]1OC(=O)[C@@H]2N=NN(Cc3ccccc3)[C@H]12`, for which the TGI is greater than 100 µM.

In turn, `C/C(=N\Nc1nc2ccccc2s1)c1ccc2ccccc2n1` returned a TGI greater than 100 µM.

The molecule `CN1N=C(c2ccncc2)OC1c1ccccc1F` (stereo unspecified) showed a TGI greater than 100 µM.

As to `Cc1c(-c2ccccc2)[nH]n(C2=NCCN2)c1=O`, the TGI was greater than 100 µM.

The molecule `O=[N+]([O-])/C(Cl)=C(\NCCN/C(C(Cl)=C(Cl)Cl)=C(/Cl)[N+](=O)[O-])C(Cl)=C(Cl)Cl` showed a TGI greater than 100 µM.

The molecule `Cc1ccc(NC(=O)/C(Cc2nc3ccc([N+](=O)[O-])cc3[nH]c2=O)=N\NC(=O)C[n+]2ccccc2)c(C)c1` gave a TGI greater than 100 µM.

`CC1(C)N=C2C(=O)c3c([nH]c4ccccc34)[C@]3(C)CCC1CC23` (stereo partly specified) registered a TGI greater than 6.25 µM.

For the molecule `C[n+]1c(/C=C/c2ccc(O)c3ncccc23)[se]c2ccccc21`, the TGI was determined as 17.6 µM.

As for `COc1ccc(NC(C)c2ccncc2)cc1` (stereo unspecified), the TGI was greater than 100 µM.

The molecule `O=C1C=CC(=O)C(CNc2ccc(C(=O)OCc3ccccc3)cc2)=C1` gave a TGI of 9.1 µM.

With `CC1=NNC(=O)C1C1CC(c2c[nH]c3ccccc23)=NN=C1Cl` (stereo unspecified), the TGI is greater than 100 µM.

In turn, `C/C(=C\CO)CC/C=C(\C)CNc1ccc([N+](=O)[O-])cc1` gave a TGI greater than 100 µM.

For the molecule `CCN(CCCl)c1cc(CN(C)C)cc(NC(=O)c2ccc(C(=O)Nc3cccc(CN(C)C)c3)cc2)c1`, the TGI is greater than 100 µM.

Consider `c1ccc(C2CC(=NC3CCCCC3)Nc3ccccc3N2)cc1` (stereo unspecified), for which the TGI is greater than 100 µM.

In the next assay the test system is UACC-257 melanoma. Briefly: NCI tumour cell line growth inhibition, 48 h.
For `O=C(CC(C(=O)c1ccco1)c1ccco1)c1ccco1` (stereo unspecified), the TGI is greater than 100 µM.

The molecule `CC(C)C(N)C(=O)NC(CCC(=O)NCCCCC(N)C(=O)NCCCNc1ccc([N+](=O)[O-])c2[nH]c3ccccc3c(=O)c12)C(N)=O` (stereo unspecified) had a TGI greater than 100 µM.

`Cc1cccc(/C(Br)=C2/OC(=O)c3ccccc32)c1` displayed a TGI greater than 100 µM.

In the case of `CC1(C)OC2COC3([C@@H]4OC(C)(C)O[C@@H]4CO)OC(C)(C)OC3C2O1` (stereo partly specified), the TGI is greater than 100 µM.

Turning to `COP(=O)(OC)C(Nc1ccc(Cc2ccc(NC(c3ccco3)P(=O)(OC)OC)cc2)cc1)c1ccco1` (stereo unspecified), the TGI was greater than 100 µM.

In turn, `O=C1C(C(O)(C(F)(F)F)C(F)(F)F)CCC1C(O)(C(F)(F)F)C(F)(F)F` (stereo unspecified) registered a TGI of 34.8 µM.

The molecule `COc1cc(/C=C2\CCC(C)/C(=C\c3cc(OC)c(OC)c(OC)c3)C2=O)cc(OC)c1OC` (stereo unspecified) showed a TGI of 21.3 µM.

For `Nc1nc(Nc2ccccc2)sc1C(=O)c1ccco1`, the TGI is 68.9 µM.

In turn, `C/C(=N\Nc1nc2ccccc2s1)c1ccc2ccccc2n1` returned a TGI greater than 100 µM.

Molecule `Cc1c(-c2ccccc2)[nH]n(C2=NCCN2)c1=O` came in with a TGI greater than 100 µM.

Molecule `Cc1ccc(NC(=O)/C(Cc2nc3ccc([N+](=O)[O-])cc3[nH]c2=O)=N\NC(=O)C[n+]2ccccc2)c(C)c1` came in with a TGI greater than 100 µM.

`CC1(C)N=C2C(=O)c3c([nH]c4ccccc34)[C@]3(C)CCC1CC23` (stereo partly specified) yielded a TGI greater than 6.25 µM.

Regarding `C[n+]1c(/C=C/c2ccc(O)c3ncccc23)[se]c2ccccc21`, the TGI amounted to 11.1 µM.

On to `O=C1C=CC(=O)C(CNc2ccc(C(=O)OCc3ccccc3)cc2)=C1`, for which the TGI was determined as 25.2 µM.

As for `CC1=NNC(=O)C1C1CC(c2c[nH]c3ccccc23)=NN=C1Cl` (stereo unspecified), the TGI was greater than 100 µM.

Consider `C/C(=C\CO)CC/C=C(\C)CNc1ccc([N+](=O)[O-])cc1`, for which the TGI was found to be 76.2 µM.

As for `CC(=O)Oc1c(C)c(C)c2c(c1C)CCC(C)(CC(=O)OCCCCCCCCCCC[P+](c1ccccc1)(c1ccccc1)c1ccccc1)O2` (stereo unspecified), the GI50 is 0.268 µM and the TGI was 0.78 µM.

Consider `CCN(CCCl)c1cc(CN(C)C)cc(NC(=O)c2ccc(C(=O)Nc3cccc(CN(C)C)c3)cc2)c1`, for which the TGI stood at 3.67 µM.

`c1ccc(C2CC(=NC3CCCCC3)Nc3ccccc3N2)cc1` (stereo unspecified) had a TGI greater than 100 µM.

For another assay, the system named is SK-OV-3 ovarian. Briefly: NCI tumour cell line growth inhibition, 48 h.
For `COc1ccc(N2C(=O)C3c4[nH]c5ccccc5c4C4CCCCCCCCCC4C3C2=O)cc1` (stereo unspecified), the TGI was greater than 10 µM.

For the molecule `O=C(CC(C(=O)c1ccco1)c1ccco1)c1ccco1` (stereo unspecified), the TGI is greater than 100 µM.

For the molecule `CC(C)C(N)C(=O)NC(CCC(=O)NCCCCC(N)C(=O)NCCCNc1ccc([N+](=O)[O-])c2[nH]c3ccccc3c(=O)c12)C(N)=O` (stereo unspecified), the TGI was greater than 100 µM.

Regarding `Cc1cccc(/C(Br)=C2/OC(=O)c3ccccc32)c1`, the TGI was greater than 100 µM.

Take `COP(=O)(OC)C(Nc1ccc(Cc2ccc(NC(c3ccco3)P(=O)(OC)OC)cc2)cc1)c1ccco1` (stereo unspecified): the TGI came out at 73.6 µM.

The molecule `O=C1C(C(O)(C(F)(F)F)C(F)(F)F)CCC1C(O)(C(F)(F)F)C(F)(F)F` (stereo unspecified) yielded a TGI greater than 100 µM.

As for `COc1cc(/C=C2\CCC(C)/C(=C\c3cc(OC)c(OC)c(OC)c3)C2=O)cc(OC)c1OC` (stereo unspecified), the TGI worked out at 62 µM.
